The source made the active and inactive calls. The calls are words filed in the database; no cut-off is given here.

Data on eight molecules can be found in ChEMBL document CHEMBL1153842, “Trioxaquines and heme-artemisinin adducts inhibit the in vitro formation of hemozoin better than chloroquine” (Antimicrob Agents Chemother, 2007).

What all share (assay type): functional
The target of assay [1] is T1, Histidine-rich protein PFHRP-II (Plasmodium falciparum) (UniProt P05227).
T1 sequence (whole entry): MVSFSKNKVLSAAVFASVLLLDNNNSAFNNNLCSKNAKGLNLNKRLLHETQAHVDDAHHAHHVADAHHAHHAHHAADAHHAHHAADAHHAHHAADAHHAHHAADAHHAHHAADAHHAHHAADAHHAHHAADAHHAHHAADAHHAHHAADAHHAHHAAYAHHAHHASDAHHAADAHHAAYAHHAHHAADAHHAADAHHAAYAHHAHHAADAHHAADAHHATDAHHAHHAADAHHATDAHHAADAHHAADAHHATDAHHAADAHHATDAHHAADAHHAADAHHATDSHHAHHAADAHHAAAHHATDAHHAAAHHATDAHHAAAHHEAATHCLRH
The experiment in a line: Inhibition of beta-hematin formation at drug to heme molar equivalent ratio of 2 by infrared spectra measured after 18 hrs.

The target of assay [2] is T1, Histidine-rich protein PFHRP-II (Plasmodium falciparum). The experiment in a line: Inhibition of beta-hematin formation at drug to heme molar equivalent ratio of 10 by infrared spectra measured after 18 hrs.
The target is the same in assay [3]. Briefly: Inhibition of beta-hematin formation at drug to heme molar equivalent ratio of 15 by infrared spectra measured after 18 hrs.
Assay [4] shares this target. The experiment in a line: Inhibition of beta-hematin formation at drug to heme molar equivalent ratio of 3 by infrared spectra measured after 18 hrs.
Assay [5] has the same target. The experiment in a line: Inhibition of beta-hematin formation at 1:1 drug to heme ratio by infrared spectra measured after 18 hrs.

`CC(C)C1=CC2OC3(CCC(NCCNc4ccnc5cc(Cl)ccc45)CC3)OOC2CC1` (centres undefined): the result in assay [1] was Active.

`CCN(CC)CCCC(C)Nc1ccnc2cc(Cl)ccc12` (centres undefined): in assay [2], the result was Active.

Regarding `NCCNc1ccnc2cc(Cl)ccc12`, the result in assay [2] was Active.

`COc1cc(NC(C)CCCN)c2ncccc2c1` (centres undefined): the result in assay [3] was inactive.

In the case of `COc1cc(NC(C)CCCNC2CCC3(CC2)OOC2CCC(C(C)C)=CC2O3)c2ncccc2c1` (centres undefined), the outcome in assay [4] was Active.

Consider `C[C@@H]1CC[C@H]2[C@@H](C)C(=O)O[C@@H]3O[C@@]4(C)CC[C@@H]1[C@]32OO4`, for which the result in assay [5] was Active. For the same molecule, the result in assay [3] was inactive.

On to `C[C@H]1[C@H](OC(=O)CCC(=O)O)O[C@@H]2O[C@@]3(C)CC[C@H]4[C@H](C)CC[C@@H]1[C@@]24OO3`, for which the outcome in assay [3] was inactive.

On to `CO[C@H]1O[C@@H]2O[C@@]3(C)CC[C@H]4[C@H](C)CC[C@@H]([C@H]1C)[C@@]24OO3`, for which the outcome in assay [3] was inactive.
